Data on 21 compounds can be found in US10988459B2 (priority 2015, dated 2021).

This assay deals with human RIP1 kinase domain (2-375) (Homo sapiens (Human), UniProt Q13546). Put plainly: biochemical. The assay is classed as biochemical. Conditions: human RIP1 kinase domain (2-375), 50 uM ATP, 2 hours incubation, Transcreener ADP assay; read-out: RIP1 Ki. Summed up: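 50 nM purified kinase domain from baculovirus-infected insect cells, incubated 2 h with compound in 50 mM Hepes pH 7.5, 30 mM MgCl2, 1 mM DTT, 50 uM ATP, 0.002% Brij-35, 0.5% DMSO. ADP formation read by Transcreener FP at 633 nm excitation. Ki^app fitted with the Morrison tight-binding equation.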
Chain of human RIP1 kinase domain (2-375) (Q13546 2-375): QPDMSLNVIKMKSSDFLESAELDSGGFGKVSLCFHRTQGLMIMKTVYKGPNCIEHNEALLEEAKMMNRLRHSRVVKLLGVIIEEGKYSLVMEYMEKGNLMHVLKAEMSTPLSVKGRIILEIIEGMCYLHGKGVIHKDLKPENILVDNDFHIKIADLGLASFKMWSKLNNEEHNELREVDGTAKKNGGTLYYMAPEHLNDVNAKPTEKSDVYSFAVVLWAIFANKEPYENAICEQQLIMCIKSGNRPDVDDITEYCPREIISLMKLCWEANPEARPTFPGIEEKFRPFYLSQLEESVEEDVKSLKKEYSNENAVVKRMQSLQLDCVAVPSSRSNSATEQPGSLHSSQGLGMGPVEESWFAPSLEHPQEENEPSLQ

As to `CC(C)n1ncc2cnc(C(=O)N[C@H]3COc4ccccc4N(C)C3=O)nc21` [Example 122, (S)-1-isopropyl-N-(5-methyl-4-oxo-2,3,4,5-tetrahydrobenzo[b][1,4]oxazepin-3-yl)-1H-pyrazolo[3,4-d]pyrimidine-6-carboxamide], the Ki came out at 19.5 nM.

`CN1C(=O)[C@@H](NC(=O)c2nc3n(n2)C(c2ccccc2)COC3)COc2ccccc21` (stereo partly drawn) [Example 123, N—((S)-5-methyl-4-oxo-2,3,4,5-tetrahydrobenzo[b][1,4]oxazepin-3-yl)-5-phenyl-5,6-dihydro-8H-[1,2,4]triazolo[5,1-c][1,4]oxazine-2-carboxamide]: the Ki stood at 268 nM.

Turning to `CN1C(=O)[C@@H](NC(=O)c2nc3n(n2)C(c2ccccc2)CC3)CCn2nccc21` (stereo partly drawn) [Example 124, N—((S)-4-methyl-5-oxo-5,6,7,8-tetrahydro-4H-pyrazolo[1,5-a][1,3]diazepin-6-yl)-5-phenyl-6,7-dihydro-5H-pyrrolo[1,2-b][1,2,4]triazole-2-carboxamide], the Ki worked out at 76.8 nM.

`CN1C(=O)[C@@H](NC(=O)c2cc3c(cn2)cnn3CC(F)(F)F)COc2ccccc21` [Example 127, N-[(3S)-5-methyl-4-oxo-2,3-dihydro-1,5-benzoxazepin-3-yl]-1-(2,2,2 trifluoroethyl)pyrazolo[4,3-c]pyridine-6-carboxamide]: the Ki was 237 nM.

Take `CN1C(=O)[C@@H](NC(=O)c2cc3c(cn2)cnn3C2CCOC2)COc2ccccc21` (stereo partly drawn) [Example 128, N—((S)-5-methyl-4-oxo-2,3,4,5-tetrahydrobenzo[b][1,4]oxazepin-3-yl)-1-(tetrahydrofuran-3-yl)-1H-pyrazolo[4,3-c]pyridine-6-carboxamide]: the Ki was 61.4 nM.

For the compound `CN1C(=O)C(NC(=O)c2nnc(Cc3ccccc3)[nH]2)CCn2nc3c(c21)CCCC3` (stereo not drawn) [Example 133, 5-benzyl-N-(1-methyl-2-oxo-2,3,4,5,8,9,10,11-octahydro-1H-[1,3]diazepino[1,2-b]indazol-3-yl)-4H-1,2,4-triazole-3-carboxamide], the Ki was 127 nM.

As to `CN1C(=O)C(NC(=O)c2ncn(Cc3ccccc3)n2)CCn2nc(C3CC3(F)F)cc21` (stereo not drawn) [Example 134, 1-benzyl-N-(2-(2,2-difluorocyclopropyl)-4-methyl-5-oxo-5,6,7,8-tetrahydr-4H-pyrazolo[1,5-a][1,3]diazepin-6-yl)-1H-1,2,4-triazole-3-carboxamide], the Ki was found to be 73.6 nM.

Consider `CN1C(=O)C(NC(=O)c2cn(Cc3ccccc3)nn2)CCn2nc3c(c21)CCCC3` (stereo not drawn) [Example 135, 1-benzyl-N-(1-methyl-2-oxo-2,3,4,5,8,9,10,11-octahydro-1H-[1,3]diazepino[1,2-b]indazol-3-yl)-1H-1,2,3-triazole-4-carboxamide], for which the Ki was 390 nM.

Turning to `CN1C(=O)C(NC(=O)c2ncn(Cc3ccccc3)n2)CCn2nc3c(c21)CCCC3` (stereo not drawn) [Example 136, 1-benzyl-N-(1-methyl-2-oxo-2,3,4,5,8,9,10,11-octahydro-1H-[1,3]diazepino[1,2-b]indazol-3-yl)-1H-1,2,4-triazole-3-carboxamide], the Ki came to 110 nM.

Turning to `CN1C(=O)C(NC(=O)c2n[nH]c3c2C[C@@H](C(F)(F)F)CC3)CCn2nc3c(c21)CCCC3` (stereo partly drawn) [Example 137, (5S)—N-(1-methyl-2-oxo-2,3,4,5,8,9,10,11-octahydro-1H-[1,3]diazepino[1,2-b]indazol-3-yl)-5-(trifluoromethyl)-4,5,6,7-tetrahydro-1H-indazole-3-carboxamide], the Ki is 1800 nM.

On to `CCOc1ccc2[nH]nc(C(=O)N[C@H]3COc4ccccc4N(C)C3=O)c2n1` [Example 138, 5-ethoxy-N-[(3S)-5-methyl-4-oxo-2,3-dihydro-1,5-benzoxazepin-3-yl]-1H-pyrazolo[4,3-b]pyridine-3-carboxamide], for which the Ki was 3700 nM.

Take `CC(C)c1ccc2[nH]nc(C(=O)N[C@H]3COc4ccccc4N(C)C3=O)c2n1` [Example 139, 5-isopropyl-N-[(3S)-5-methyl-4-oxo-2,3-dihydro-1,5-benzoxazepin-3-yl]-1H-pyrazolo[4,3-b]pyridine-3-carboxamide]: the Ki was 29.2 nM.

Regarding `CN1C(=O)C(NC(=O)c2ncn(Cc3ccccc3)n2)CCn2nc3c(c21)CS(=O)(=O)C3` (stereo not drawn) [Example 140, 1-benzyl-N-(1-methyl-9,9-dioxido-2-oxo-1,2,3,4,5,10-hexahydro-8H-thieno[3′,4′:3,4]pyrazolo[1,5-a][1,3]diazepin-3-yl)-1H-1,2,4-triazole-3-carboxamide], the Ki came to 316 nM.

Take `CN1C(=O)C(NC(=O)c2nnc(Cc3ccccc3)[nH]2)CCn2nc3c(c21)CS(=O)(=O)C3` (stereo not drawn) [Example 141, 5-benzyl-N-(1-methyl-9,9-dioxido-2-oxo-1,2,3,4,5,10-hexahydro-8H-thieno[3′,4′:3,4]pyrazolo[1,5-a][1,3]diazepin-3-yl)-4H-1,2,4-triazole-3-carboxamide]: the Ki amounted to 544 nM.

Turning to `CN1C(=O)C(NC(=O)c2ncn(Cc3ccccc3)n2)CCn2nc3c(c21)CSC3` (stereo not drawn) [Example 142, 1-benzyl-N-(1-methyl-2-oxo-1,2,3,4,5,10-hexahydro-8H-thieno[3′,4′:3,4]pyrazolo[1,5-a][1,3]diazepin-3-yl)-1H-1,2,4-triazole-3-carboxamide], the Ki turned out to be 65.8 nM.

In the case of `CN1C(=O)[C@@H](NC(=O)c2n[nH]c3ccc(Cl)nc23)COc2ccccc21` [Example 143, 5-chloro-N-[(3S)-5-methyl-4-oxo-2,3-dihydro-1,5-benzoxazepin-3-yl]-1H-pyrazolo[4,3-b]pyridine-3-carboxamide], the Ki worked out at 51.5 nM.

For the compound `CN1C(=O)[C@@H](NC(=O)c2n[nH]c3ccc(C4CC4)nc23)COc2ccccc21` [Example 144, 5-cyclopropyl-N-[(3S)-5-methyl-4-oxo-2,3-dihydro-1,5-benzoxazepin-3-yl]-1H-pyrazolo[4,3-b]pyridine-3-carboxamide], the Ki came to 248 nM.

As to `CN1C(=O)C(NC(=O)c2nnc(Cc3ccccc3)[nH]2)CCn2nc3c(c21)CSC3` (stereo not drawn) [Example 145, 5-benzyl-N-(1-methyl-2-oxo-1,2,3,4,5,10-hexahydro-8H-thieno[3′,4′:3,4]pyrazolo[1,5-a][1,3]diazepin-3-yl)-4H-1,2,4-triazole-3-carboxamide], the Ki came to 78.6 nM.

For `CN1C(=O)[C@@H](NC(=O)c2cn(Cc3ccc(F)c(F)c3)cn2)CCn2nccc21` [Example 146, (S)-1-(3,4-difluorobenzyl)-N-(4-methyl-5-oxo-5,6,7,8-tetrahydro-4H-pyrazolo[1,5-a][1,3]diazepin-6-yl)-1H-imidazole-4-carboxamide], the Ki was 301 nM.

For `CN1C(=O)[C@@H](NC(=O)c2ncn(Cc3ccccc3)n2)CCn2nc([C@@H]3CC3(F)F)cc21` [Example 147, 1-benzyl-N-((S)-2-((S)-2,2-difluorocyclopropyl)-4-methyl-5-oxo-5,6,7,8-tetrahydro-4H-pyrazolo[1,5-a][1,3]diazepin-6-yl)-1H-1,2,4-triazole-3-carboxamide], the Ki turned out to be 46.2 nM.

On to `CN1C(=O)[C@@H](NC(=O)c2ncn(Cc3ccccc3)n2)CCn2nc([C@H]3CC3(F)F)cc21` [Example 148, 1-benzyl-N-((S)-2-((R)-2,2-difluorocyclopropyl)-4-methyl-5-oxo-5,6,7,8-tetrahydro-4H-pyrazolo[1,5-a][1,3]diazepin-6-yl)-1H-1,2,4-triazole-3-carboxamide], for which the Ki is 40 nM.

What is called Ki is a dissociation constant, usually derived from enzyme kinetics or from competition with a known ligand.
